Patent US10710988B2, “Piperazine derivative” (Astellas Pharma Inc., priority 2016, dated 2020)

How the values were obtained:
human MC4 receptor = biological target: T1, human MC4 receptor (Homo sapiens, UniProt P32245); experiment: Human MC4 receptor activation, cAMP production in cells transiently expressing the receptor; format: cell-based; details: FreeStyle 293-F cells expressing human MC4 receptor, α-MSH maximum = 100%
T1 construct: expressed in transfected cells; host or cells: FreeStyle 293-F cells (transient, electroporation)
T1 sequence (P32245 whole entry): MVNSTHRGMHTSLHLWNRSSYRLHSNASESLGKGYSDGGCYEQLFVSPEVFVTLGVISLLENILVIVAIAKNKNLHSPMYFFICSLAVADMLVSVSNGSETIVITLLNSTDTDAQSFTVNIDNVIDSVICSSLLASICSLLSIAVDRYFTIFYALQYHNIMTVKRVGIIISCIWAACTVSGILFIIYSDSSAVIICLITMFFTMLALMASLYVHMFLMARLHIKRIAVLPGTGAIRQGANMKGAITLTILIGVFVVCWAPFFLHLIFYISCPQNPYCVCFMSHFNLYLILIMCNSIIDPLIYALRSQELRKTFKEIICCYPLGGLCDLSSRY
Text: (§1) (1) Construction of Human MC Receptor-Expressing Vector
(§2) A human MC4 receptor gene (GenBank Accession No.: NM_005912.2), a human MC1 receptor gene (GenBank Accession No.: NM_002386.3), or a human MC3 receptor gene (GenBank Accession No.: NM_019888.3) was introduced into an expression vector pcDNA™ 3.1N/V5-His TOPO (registered trademark) (Thermo Fisher Scientific Inc).
(§3) (2) Construction of Cells Transiently Expressing Human MC Receptor
(§4) An expression vector for a human MC4, MC1, or MC3 receptor was introduced into FreeStyle™ 293-F cells (Thermo Fisher Scientific Inc., product number: R790-07). For the introduction, electroporation was employed. That is, 1×10^7 FreeStyle™ 293-F cells were suspended in 80 μL of an Electroporation Buffer (Thermo Fisher Scientific Inc., product number: B201-100), and 20 μg of the expression vector was added thereto. The resultant was put into a cuvette (OC-100 Processing Assembly, MaxCyte, Inc.) and electroporated with MaxCyte STX (registered trademark) (MaxCyte, Inc.). The cells were cultured for a day, suspended in a Cell Banker (registered trademark) 1 (TAKARA BIO INC. or JUJI FIELD Inc., product number: BLC-1), and stored frozen until they were used.
(§5) (3) Measurement of Amount of cAMP Production
(§6) Measurement was carried out by using a LANCE (registered trademark) Ultra cAMP Kit (PerkinElmer, Inc.) in accordance with the attached instructions. That is, after dissolution in DMSO, the test compound (a final concentration of 1 pM to 30 μM) diluted with an assay buffer (Hank's balanced salt solution, 5 mM 4-(2-hydroxyethyl)-1-piperazineethanesulfonic acid (HEPES), 0.5 mM 3-isobutyl-1-methylxanthine (IBMX), 0.1% bovine serum albumin, pH 7.4), or α-MSH (Bachem Inc., a final concentration of 1 pM to 30 μM) was added to OptiPlate-384 (PerkinElmer, Inc.). Furthermore, the suspension of the cells transiently expressing the human MC4, MC1, or MC3 receptor prepared using the assay buffer was added thereto at 1,000 cells/well, and then left to stand at room temperature for about 1 hour. Thereafter, an Eu-cAMP tracer solution and an ULight™-anti-cAMP solution were added thereto, and then the resulting solution was left to stand at room temperature for about 1 hour. The amount of cAMP was calculated using EnVision (registered trademark) (PerkinElmer Inc.).
(§7) For the agonistic activity, the efficacy (EC50 (μM)) was calculated by a non-linear regression method with a Sigmoid-Emax model, by defining the maximum reaction using α-MSH as 100% and the reaction using the vehicle alone as 0%, respectively.

human MC1 receptor = biological target: T2, human MC1 receptor (Homo sapiens, UniProt Q01726); experiment: Human MC1 receptor activation, cAMP production in cells transiently expressing the receptor; format: cell-based; details: FreeStyle 293-F cells expressing human MC1 receptor, α-MSH maximum = 100%
T2 construct: expressed in transfected cells; host or cells: FreeStyle 293-F cells (transient, electroporation)
T2 sequence (Q01726 whole entry): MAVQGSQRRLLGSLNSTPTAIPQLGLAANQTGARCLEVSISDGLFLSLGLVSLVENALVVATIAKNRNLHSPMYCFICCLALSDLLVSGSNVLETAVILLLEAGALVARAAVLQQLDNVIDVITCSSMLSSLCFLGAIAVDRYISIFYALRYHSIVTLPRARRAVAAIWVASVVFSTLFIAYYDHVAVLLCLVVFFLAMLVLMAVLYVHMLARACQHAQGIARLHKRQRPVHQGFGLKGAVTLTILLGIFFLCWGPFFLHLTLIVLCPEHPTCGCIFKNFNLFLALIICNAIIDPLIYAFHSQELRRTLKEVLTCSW
Text: as §1, §2, §3, §4, §5, §6, §7

[1] = system: drug-induced voiding dysfunction model rat; experiment: Effect on drug-induced voiding dysfunction model rat; format: in vivo; details: male SD rats; atropine sulfate + midodrine hydrochloride induced voiding dysfunction; inhibition of decrease in voiding efficiency or increase of residual urine; P<0.05
Text: Male Sprague Dawley (SD) rats (Japan SLC, Inc.) were anesthetized with isoflurane and a cannula was placed in the bladder, the stomach, and the jugular vein. Then, the rats were awakened in a Baellman cage (Natsume Seisakusho Co., Ltd.). After a post-operative stabilization period, physiological saline was continuously infused into the bladder by an infusion pump (Terumo Corporation, product number: TE-331 S, STC-528) to induce voiding. Infusion of the physiological saline was stopped as soon as the voiding began, and the amount of the voided urine was measured using an electronic top-loading balance installed under the Ballman cage. After voiding ended, the residual urine was collected by gravity through the cannula implanted into the bladder and weighed, and the weight was taken as the amount of the residual urine. Furthermore, the intravesical pressure was measured by a pressure transducer (Nihon Kohden Corporation, product numbers: DX-100) through the bladder cannula. The test compound or the vehicle was administered into the stomach, and atropine sulfate (Sigma-Aldrich Co. LLC., 0.01 mg/kg) as an anticholinergic drug and midodrine hydrochloride (Sigma-Aldrich Co. LLC., 0.3 mg/kg) as an a adrenergic receptor agonist were intravenously administered to induce voiding dysfunction. The voiding efficiency (=[voided amount/(voided amount+amount of residual urine)]×100) and the amount of the residual urine before and after the administration of the test compound or the vehicle were measured, and the amount changed was evaluated. The value obtained by the administration of the vehicle and the value obtained by the administration of the test compound were compared in a Dunnett's multiple comparison test with a statistically significant difference (P<0.05), and the minimum dose at which the inhibitory action on a decrease in voiding efficiency or on an increase of the amount of residual urine observed was defined as a minimum effective dose (4 rats per group).

human MC3 receptor = biological target: T3, human MC3 receptor (Homo sapiens, UniProt P41968); experiment: Human MC3 receptor activation, cAMP production in cells transiently expressing the receptor; format: cell-based; details: FreeStyle 293-F cells expressing human MC3 receptor, α-MSH maximum = 100%
T3 construct: expressed in transfected cells; host or cells: FreeStyle 293-F cells (transient, electroporation)
T3 sequence (P41968 whole entry): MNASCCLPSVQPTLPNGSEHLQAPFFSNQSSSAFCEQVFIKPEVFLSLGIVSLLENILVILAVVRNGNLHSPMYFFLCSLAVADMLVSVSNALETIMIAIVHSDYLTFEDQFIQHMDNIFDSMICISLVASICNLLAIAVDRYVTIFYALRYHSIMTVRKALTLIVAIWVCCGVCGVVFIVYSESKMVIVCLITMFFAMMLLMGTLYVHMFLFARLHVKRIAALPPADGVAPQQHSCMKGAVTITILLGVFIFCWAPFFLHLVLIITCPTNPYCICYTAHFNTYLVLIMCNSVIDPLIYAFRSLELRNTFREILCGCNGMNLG
Text: as §1, §2, §3, §4, §5, §6, §7

Row | SMILES | EC50 (human MC4 receptor) [nM] | EC50 (human MC1 receptor) [nM] | EC50 (human MC3 receptor) [nM] | MED (minimum effective dose) [1] [mg/kg ig]
1 | CC(=O)N[C@@H](CC(C)(C)C)C(=O)N1C[C@H](C)N(C(=O)[C@@H]2CN(C(C)(C)C)C[C@H]2c2ccc(F)cc2F)C[C@H]1C.Cl [Example 4, N-{(2S)-1-[(2R,5S)-4-{[(3 S,4R)-1-tert-butyl-4-(2,4-difluorophenyl)pyrrolidin-3-yl]carbonyl}-2,5-dimethylpiperazin-1-yl]-4,4-dimethyl-1-oxopentan-2-yl}acetamide monohydrochloride] | 6.8 | 1000 | 270 | 0.01
2 | CC(=O)N[C@@H](CC(C)C)C(=O)N1CCN(C(=O)[C@@H]2CN(C(C)(C)C)C[C@H]2c2ccc(Cl)cc2F)C[C@H]1C [Example 5] | 6 | 710 | 550 | 0.01

Continued, in another order:

Row | EC50 (human MC4 receptor) [nM] | EC50 (human MC1 receptor) [nM] | EC50 (human MC3 receptor) [nM] | SMILES | MED (minimum effective dose) [1] [mg/kg ig]
3 | 19 | 2600 | 1800 | CC(=O)N[C@H](C(=O)N1CCN(C(=O)[C@@H]2CN(C(C)(C)C)C[C@H]2c2ccc(F)cc2F)[C@@H](C)C1)C1CCCCC1.Cl [Example 6, N-{(1S)-2-[(3S)-4-{[(3S,4R)-1-tert-butyl-4-(2,4-difluorophenyl)pyrrolidin-3-yl]carbonyl}-3-methylpiperazin-1-yl]-1-cyclohexyl-2-oxoethyl}acetamide monohydrochloride] | 0.03
4 | 10 | 1700 | 1000 | CC(=O)N[C@@H](CC(C)(C)C)C(=O)N1CCN(C(=O)[C@@H]2CN(C(C)(C)C)C[C@H]2c2ccc(F)cc2F)[C@@H](C)C1.Cl [Example 8] | 0.01
5 | 11 | 1600 | 890 | CC(=O)N[C@@H](CC(C)(C)C)C(=O)N1C[C@H](C)N(C(=O)C2CN(C(C)(C)C)CC2c2ccc(F)cc2)C[C@H]1C.Cl (some centres unmarked) [Example 11] | 0.03
